One test relates to MV-4-11. The test is described as follows: Long term proliferation assay (Table 3A), MV-4-11. The settings on record: Homo sapiens, MV4-11. The test is classed as cell-based.
The subject of a further test is HL-60. The test is described as follows: Proliferation study, CellTiterGlo, 4 days (Example 102), HL-60. The settings on record: HL-60, 4 days treatment; for HL-60 % max: maximal inhibition; for IC50: Homo sapiens, 96 h, CellTiterGlo. The test is classed as cell-based. The source says:
The objective of the study was to evaluate the ability of representative compounds of the present invention, inhibitors of Menin/MLL interaction to inhibit cell proliferation. The proliferation inhibitory effect was investigated in two human MLL-leukemia cells selected on the bases of MLL fusion protein and listed in Table 102. HL-60 cell line was used as negative control.
ATP is present in all metabolically active cells and is considered as a marker for cell viability and proliferation. The metabolic cell activity was determined using the CellTiter-Glo kit from Promega, an ATP monitoring system based on the production of luminescence by the reaction of ATP with added UltraGlo® recombinant luciferase (Kawano et al., 2016), according to the supplier's experimental recommendations.
The described assay evaluates the ability of 4 representative compounds to inhibit the cell proliferation in the human MLL-leukemia cells plus a negative control cell line.
The assay provides potency values (IC50) for each test compound at a single time point Day 4 (T4).
Seven concentrations of the compounds (2.00E-05-6.67E-06-2.22E-06-7.41E-07-2.47E-07-8.23E-08-2.74E-08M), were assessed in duplicate in an individual test occasion in all the cell lines. MI-503 (Borkin et al., 2015) was used as reference compound and was tested at the same concentrations as the NCEs. 100% of proliferation is represented by the untreated cells (0.2% DMSO). The cell growth was monitored up to 4 days in culture.
MV4-11, MOLM-13 and HL-60 cells (see Table 2) were maintained in RPMI-1640 medium (Invitrogen, Cat. n. 618700, Batch n. 1965930) supplemented with 10% of Heat Inactivated FBS (Invitrogen, Cat n. 10500, Batch n. 08Q8078K) and 1% Pen-Strep (Invitrogen, Cat. N. 15140, Batch n. 1910859) and cultured at 37° C. in a humidified incubator with 5% CO2. All the cell lines grow in suspension and the cell density was maintained in a range of 2×10^5-1×10^6 viable cells/ml. Cells were pelleted at 130 g×5 min and conditioned medium was used to dilute the cell suspension.
Test items were dissolved in glass vials at 10 mM in DMSO with purity ≥99.9% (Sigma, D8418, batch n. SHBH4245V) and stored at −20° C. in 1.5 mL Eppendorf tubes.
Serial dilutions 1 to 3 in DMSO 100% were prepared starting from a 10 mM stock solutions to generate 7 points concentration response curve (CRC).
For each plate to test, one 0.4 μL copy plate and four 0.3 μL copy plates were then stamped into 96-well plates not treated for cell adhesion (Sarstedt—cat.no. 82.1581.001) by acoustic liquid Handling, Echo, at a concentration which was 500 fold the final assay concentration. Stamped plates were stored at −20° C. The final concentrations for the reference compound, MI-503, and the test items were: 2.00E-05, 6.67E-06, 2.22E-06, 7.41E-07, 2.47E-07, 8.23E-08 and 2.74E-08 M.
Cells were plated in 96-well flat bottom microtiter plates at cell density of 15,000 cells/ml for HL-60, 1000 cells/ml for MOLM-13 and 10,000 cell/ml for MV4-11. Cells were treated with 0.2% DMSO (Sigma, D8418, batch n. SHBH4245V) or serial dilutions of compounds (0.027 μM-20 μM) in DMSO (0.2% final concentration). Cells were incubated in a 5% CO2 incubator at 37° C. for 4 days. A CellTiterGlo viability assay (Promega) was employed. Luminescence was read by using VictorV (Perkin Elmer) multilabel plate reader using the standard protocol for luminescence in 96 well plate. The experiment was performed in duplicate.
Data were expressed as % of inhibition compared to the 0.2% DMSO negative control, and was calculated as follows: […]
CRCs were analysed by GraphPad and IC50 values were calculated by non-linear regression using 4 parameter-logistic equation. IC50 (μM) values were reported in the final data table. The curve fittings were performed leaving free all the parameters. Any constrain were reported in the results table.
On the technique in general: ATP-based viability assays read luminescence as a measure of living cells.

Setting [1] is: MV-4-11, Day 4, read-out: MV-4-11 Day 4 IC50.
Where [2] appears, read: read-out: HL-60 pIC50 (converted).

Consider three compounds from US20240140953A1, “INHIBITORS OF MENIN-MLL INTERACTION” (BIOMEA FUSION, INC., priority 2018, published 2024).

Entries after “also recorded” stand apart in the source; their conditions may differ. Where two headings read alike, the source gives them in different places.

`O=C(Nc1ccc(-c2cc3c(N4CCOCC4)ncnc3[nH]2)cc1)Nc1cc(-c2cccnc2)n[nH]1` [Compound 9, 1-{4-[4-(morpholin-4-yl)-7H-pyrrolo[2,3-d]pyrimidin-6-yl]phenyl}-3-[3-(pyridin-3-yl)-1H-pyrazol-5-yl]urea]: the IC50 is 490 nM in the test with MV-4-11 (setting [1]); 257 nM in the test on MV-4-11 (MV-4-11, Day 11, read-out: MV-4-11 Day 11 IC50); 320 nM in the test on HL-60 (read-out: HL-60 IC50); 316 nM with HL-60 (setting [2]). This compound also returned an HL-60 % max in the test with HL-60 of 69%.
`Cn1nc(-c2cccnc2)cc1CC(=O)Nc1ccc(-c2cc3c(N4CCOCC4)ncnc3[nH]2)cc1` [Compound 11, 2-[1-methyl-3-(pyridin-3-yl)-1H-pyrazol-5-yl]-N-{4-[4-(morpholin-4-yl)-7H-pyrrolo[2,3-d]pyrimidin-6-yl]phenyl}acetamide]: the IC50 was 280 nM in the test on MV-4-11 (setting [1]), 510 nM in the test on HL-60 (read-out: HL-60 IC50) and 513 nM with HL-60 (setting [2]). For the same compound, the HL-60 % max in the test on HL-60 came to 102%.
As to `O=C(Cc1cc(-c2cccnc2)n[nH]1)Nc1ccc(-c2nc3c(N4CCOCC4)ncnc3[nH]2)cc1` [Compound 12, N-{4-[6-(morpholin-4-yl)-9H-purin-8-yl]phenyl}-2-[3-(pyridin-3-yl)-1H-pyrazol-5-yl]acetamide], the IC50 in the test with MV-4-11 (setting [1]) is 430 nM; in the test on HL-60 (read-out: HL-60 IC50), greater than 20000 nM; with HL-60 (setting [2]) it was greater than 20000 nM. Besides, the “inhibition of cell viability (in words)” value in the test on HL-60 (up to 20 μM) is “not active up to the highest concentration tested; also recorded: completely inactive up to the highest concentration tested”.
